Measurements as given in patent US9974305B2, “Fungicidal or bactericidal composition, and method for controlling diseases” (NISSAN CHEMICAL INDUSTRIES, LTD., priority 2014, dated 2018).

Legend:
[1] = system: cucumber powdery mildew (Sphaerotheca cucurbitae); test: Efficacy test on cucumber powdery mildew, irrigation treatment (Test Example 11); type: in vivo; conditions: concentration 500 ppm, cucumber (Sagami-hanjiro)
Method: An agent comprising the following compound listed in Table 2 (active ingredient A) and the compound listed in Table 6 (C18: active ingredient B), was prepared in accordance with the above Formulation Example. This agent was diluted with water to a predetermined concentration to obtain a test solution. 5 ml of the test solution was irrigated by a pipette to the close-to-ground part of cucumber seedlings at the 1 leaf stage (variety: Sagami-hanjiro), grown in a styrol cup with a diameter of 10 cm, and next day, the seedlings were transplanted to the to 4 cun pots. Then, after cultivation for 7 days in a glass greenhouse, to the first true leaf of the cucumber, a spore suspension (100,000 cfu/ml) of cucumber powdery mildew (Sphaerotheca cucurbitae) was inoculated by spraying. After 10 days in a glass greenhouse, the ratio of the formed lesion area occupying the inoculated leaves was measured, and the preventive value was calculated in accordance with the following formula. Preventive value=[1−(treated plot lesion area ratio/untreated plot lesion area ratio)]×100
(§1) Further, from the preventive value at each agent concentration, synergy was calculated by using the Colby method (Colby S. R. 1976, Weeds 15, 20-22).

[2] = system: wheat powdery mildew (Blumeria graminis); test: Efficacy test on wheat powdery mildew, seed treatment (Test Example 10); type: in vivo; conditions: wheat (Norin 61)
Method: An agent comprising the following compound listed in Table 2 (active ingredient A) and the compound listed in Table 11 (H35: active ingredient B) as active ingredients, was prepared in accordance with the above Formulation Example. This agent was diluted with water to a predetermined concentration to obtain a test solution. A predetermined amount of test solution was put in a glass bottle of 5 ml, and 0.5 g (approximately 15 grains) of wheat seeds (variety: Norin 61) were added, stirred and air-dried. In each pot with a diameter of 7 cm and having soil put therein, 3 grains were seeded and grown for 14 days. To the wheat seedlings grown to the 1-leaf stage, a spore suspension (100,000 cfu/ml) of wheat powdery mildew (Blumeria graminis) was spray-inoculated. After placing the pot in a glass greenhouse for 10 days, the ratio of the formed lesion area occupying the inoculated leaves was measured, and the preventive value was calculated in accordance with the following formula. Preventive value=[1−(treated plot lesion area ratio/untreated plot lesion area ratio)]×100
as §1

[3] = system: cucumber downy mildew (Pseudoperenospora cubensis); test: Efficacy test on cucumber downy mildew, spray treatment and prevention test (Test Example 7); type: in vivo; conditions: single compound 250 ppm; lesion area ratio
Method: An agent comprising the following compound listed in Table 2 (active ingredient A) and the compound listed in Table 6 (C40: active ingredient B) as active ingredients, was prepared in accordance with the above Formulation Example. This agent was diluted with water to a predetermined concentration to obtain a test solution. Then, to seedlings of cucumber (variety: Sagami-hanjiro) at 1.5-leaf stage grown in a pot with a diameter of 7 cm, the test solution was applied by a spray gun in an amount of 10 ml per pot, for treatment. One day after the treatment, a spore suspension (2×100,000 cfu/ml) of cucumber downy mildew (Pseudoperenospora cubensis), was spray-inoculated, and the pot was placed in a moist chamber set in temperature of 20° C. and humidity more than 95% RH for 24 hours. After placing the pot in a glass greenhouse for 6 days, the ratio of the formed lesion area occupying the inoculated leaves was measured, and the preventive value was calculated in accordance with the following formula. Preventive value=[1−(treated plot lesion area ratio/untreated plot lesion area ratio)]×100
(§2) Further, from the preventive value for each agent concentration, synergy was calculated by using the Colby method (Colby S. R. 1976, Weeds 15, 20-22).

[4] = system: cucumber gray mold fungus (Botrytis cinerea); test: Preventive test against gray mold on cucumber cotyledon leaves, spray treatment, preventive value and Colby expected value (Test Examples 1-4); type: in vivo; conditions: single compound
Method: Using the following compound listed in Table 2 (the active ingredient A) and the compound listed in Table 5 through Table 15 (active ingredient B), an agent was prepared in accordance with the above Formulation Example. This agent was diluted with water to a predetermined concentration to obtain a test solution. Then, cucumber (variety: Sagami-hanjiro) was planted in a plastic pot of 90 cm^3, and in the cotyledon stage, 5 ml of the obtained test solution, was sprayed by a spray gun and air-dried. Thereafter, the treated leaf was cut off and placed in a plastic container which filled approximately 0.5 cm in depth water. A suspension of conidia of cucumber gray mold fungus (Botrytis cinerea) and a dissolved PDA culture medium were mixed at a ratio of 1:1 (mass ratio), and the mixture was dropped to inoculate the treated leaf with 30 μl. After the inoculation, the plastic container was sealed and left at 20° C. for 3 days, the ratio of the formed lesion occupying the inoculated leaf was measured, and the preventive value was calculated in accordance with the following calculation formula. Preventive value=[1−(treated plot lesion area ratio/untreated plot lesion area ratio)]×100
Further, from the preventive value at each agent concentration, synergy was calculated by using the Colby method (Colby S. R. 1976, Weeds 15, 20-22). The calculation method is as follows. E=X+Y−XY/100
X: preventive value of A agent at x concentration
Y: preventive value of B agent at y concentration
E: theoretical value expected by treatment of the mixture of A agent and B agent.
The obtained result is analyzed to be synergy if the observed value is larger than the expected value, to be antagonism if the expected value is larger than the observed value, and to be an additive effect if the observed value and the expected value are the same.
Using the following compound listed in Table 2 (active ingredient A) and the following compound listed in Table 5 through Table 15 (active ingredient B) as active ingredients, a preventive test against gray mold was conducted in accordance with the method described in Test Example 1.
Using the following compound listed in Table 2 (active ingredient A) and the following compound listed in Table 5 or Table 6 (active ingredient B) as active ingredients, a preventive test against gray mold was conducted in accordance with the method described in Test Example 1.
Using the following compound listed in Table 2 (active ingredient A) and the following compound listed in Table 6 through Table 16 (active ingredient B) as active ingredients, a preventive test against gray mold was conducted in accordance with the method described in Test Example 1.

[5] = system: rice sheath blight fungus (Rhizoctonia solani); test: Efficacy test on rice sheath blight, spray treatment and prevention test (Test Examples 5-6); type: in vivo; conditions: single compound 250 ppm, lesion height
Method: An agent comprising the following compound listed in Table 2 (active ingredient A) and the compound listed in Table 6 (C17: active ingredient B) as active ingredients, was prepared in accordance with the above Formulation Example. The agent was diluted with water to a predetermined concentration to obtain a test solution. Then, in a plastic pot of 90 cm^3, rice (Nipponbare) was seeded by 5 grains in one place, and to the grown seedlings in 4 seedling phase, the test solution was applied by a spray gun in an amount of 5 ml per pot, for treatment.
One day after the treatment, 1 g of mycelium flora of rice sheath blight fungus (Rhizoctonia solani) cultured in bran medium, was put by […] to a close-to-ground part of seedlings, and the pot was placed in a moist chamber set in temperature of 25° C. and humidity more than 95% RH for eight days. The height of the lesions which appeared in the highest position from the close-to-ground part (lesion height) was investigated, and the preventive value was calculated in accordance with the following formula. Preventive value=[1−(treated plot lesion height/untreated plot lesion height)]×100
as §2
Using the following compound listed in Table 2 (active ingredient A) and the compound listed in Table 6 (C17: active ingredient B) as active ingredients, a preventive test on rice sheath blight was conducted in accordance with the above Test Example 5.

[6] = system: wheat glume blotch (Leptosphaeria nodorum); test: Efficacy test on wheat glume blotch, spray treatment and prevention test (Test Example 8); type: in vivo; conditions: spray, lesion area ratio
Method: An agent comprising the following compound listed in Table 2 (active ingredient A) and the following compound listed in Table 6, Table 11 or Table 15 (active ingredient B) as active ingredients, was prepared in accordance with the above Formulation Example. This agent was diluted with water to a predetermined concentration to obtain a test solution. Then, to seedlings of wheat (variety: Haruyutaka) at the 1-leaf stage, seeded in a pot with a diameter of 7 cm, with 5 seeds per pot, and grown for 7 days, the test solution was applied by a spray gun in an amount of 5 ml per pot, for treatment. One day after the treatment, a spore suspension (1×100,000 cfu/ml) of wheat glume blotch (Leptosphaeria nodorum) was spray-inoculated, and the pot was placed in a moist chamber set in temperature of 20° C. and humidity more than 95% RH for 48 hours. After placing the pot in a glass greenhouse for 7 days, the ratio of the formed lesion area occupying the inoculated leaves was measured, and the preventive value was calculated in accordance with the following formula. Preventive value=[1−(treated plot lesion area ratio/untreated plot lesion area ratio)]×100
as §2

[7] = processing amount 5 mg/1 g seed
[8] = processing amount 10 mg/1 g seed

Row | Compound | Preventive value [1] | Preventive value [2, 7] | Preventive value [2, 8] | Preventive value [3] | Preventive value ([4]; Test Example 2, 3 ppm spray) | Preventive value ([4]; Test Example 3, 3 ppm spray) | Preventive value ([4]; Test Example 4, 3 ppm spray) | Preventive value ([5]; Test Example 6) | Preventive value ([6]; single compound 3 ppm) | Preventive value ([6]; single compound 10 ppm) | melting point [°C] | Preventive value ([4]; Test Example 1, 3 ppm spray) | Preventive value ([5]; Test Example 5) | Preventive value ([4]; Test Example 2, 1 ppm spray) | Preventive value ([4]; Test Example 3, 1 ppm spray) | Preventive value ([4]; Test Example 4, 1 ppm spray)
1 | CCC(C)ON=C(CNC(=O)c1cn(C)nc1C(F)F)c1ncc(C#CC2CC2)cc1Cl (mixture of isomers) [Compound No. 27] | 60 | 85 | 90 | 0 | 50 | 55 | 45 | 8 | 75 | 85 |  |  |  |  |  | 
2 | CO/N=C(/CNC(=O)c1ccccc1C(F)(F)F)c1ncc(Cl)c(OC)c1Cl [Compound No. 8, (Z)—N-[2-[3,5-dichloro-4-(methoxy)pyridin-2-yl]-2-(methoxyimino)ethyl]-2-(trifluoromethyl)benzamide] |  |  |  |  |  |  |  |  |  |  | 74 to 76 |  |  |  |  | 
3 | CC#Cc1cnc(C(CNC(=O)c2ccccc2C(F)(F)F)=NOC(C)C)c(Cl)c1 [compound 18] | 35 | 62 | 98 | 0 |  | 85 | 75 |  | 50 | 65 |  | 88 | 8 |  |  | 
4 | O=C(NCC(=NOCC(F)(F)F)c1ncc(Cl)cc1Cl)c1ccccc1C(F)(F)F [compound 33] | 15 | 20 | 61 | 0 | 45 | 45 | 50 | 4 | 20 | 45 |  |  |  |  |  | 
5 | CC#Cc1cnc(C(CNC(=O)c2cn(C)nc2C(F)F)=NOC(C)(C)C)c(Cl)c1 [compound 34] | 60 | 20 | 85 | 5 |  |  |  | 5 | 80 | 85 |  |  |  | 63 | 70 | 50
6 | CON=C(CNC(=O)c1cccnc1Cl)c1ncc(C#CC(C)(C)C)cc1Cl [compound 35] | 30 | 20 | 61 | 0 |  | 90 | 88 | 5 | 50 | 70 |  | 88 |  |  |  | 
7 | CON=C(CNC(=O)c1ccccc1C(F)(F)F)c1ncc(C#CC2CC2)cc1Cl [compound 36] | 35 | 99 | 100 | 0 |  | 80 | 80 |  | 55 | 70 |  | 75 | 0 |  |  | 
